Reference: PubChem BioAssay AID1259407 (Chemical Carcinogenesis Research Information System (CCRIS), 2018)
Active and inactive are the calls of the source. The rule behind the calls is not given here.

Tested on: CCRIS mutagenicity, Ames/micronucleus/aberration tests
Assay: CCRIS mutagenicity studies
[1] = Test System: AMES SALMONELLA TYPHIMURIUM, Strain/Indicator: TA98, Metabolic Activation: NONE, Method: STANDARD PLATE
[2] = Test System: AMES SALMONELLA TYPHIMURIUM, Strain/Indicator: TA100, Metabolic Activation: NONE, Method: STANDARD PLATE
[3] = Test System: AMES SALMONELLA TYPHIMURIUM, Strain/Indicator: TA1535, Metabolic Activation: NONE, Method: STANDARD PLATE
[4] = Test System: AMES SALMONELLA TYPHIMURIUM, Strain/Indicator: TA1537, Metabolic Activation: NONE, Method: STANDARD PLATE

Measured: mutagenic call

NCCNCCN
inactive: Test System: AMES SALMONELLA TYPHIMURIUM, Strain/Indicator: TA98, Metabolic Activation: HAMSTER, LIVER, S-9, AROCLOR 1254 (10%), Method: PREINCUBATION inactive; negative | Test System: AMES SALMONELLA TYPHIMURIUM, Strain/Indicator: TA98, Metabolic Activation: NONE, Method: PREINCUBATION inactive; negative | [1] inactive; negative | Test System: AMES SALMONELLA TYPHIMURIUM, Strain/Indicator: TA98, Metabolic Activation: RAT LIVER S-9, PHENOBARBITAL AND BETA-NAPHTHOFLAVONE, Method: PREINCUBATION inactive; negative | Test System: AMES SALMONELLA TYPHIMURIUM, Strain/Indicator: TA98, Metabolic Activation: RAT, LIVER, S-9, AROCLOR 1254 (10%), Method: PREINCUBATION inactive; negative | Test System: AMES SALMONELLA TYPHIMURIUM, Strain/Indicator: TA98, Metabolic Activation: RAT, LIVER, S-9, AROCLOR 1254, Method: STANDARD PLATE inactive; negative | Test System: AMES SALMONELLA TYPHIMURIUM, Strain/Indicator: TA98, Metabolic Activation: RAT, LIVER, S-9, PCB, Method: PREINCUBATION inactive; negative | Test System: AMES SALMONELLA TYPHIMURIUM, Strain/Indicator: TA100, Metabolic Activation: HAMSTER, LIVER, S-9, AROCLOR 1254 (10%), Method: PREINCUBATION inactive; negative | Test System: AMES SALMONELLA TYPHIMURIUM, Strain/Indicator: TA100, Metabolic Activation: NONE, Method: PREINCUBATION inactive; negative | [2] inactive; negative | Test System: AMES SALMONELLA TYPHIMURIUM, Strain/Indicator: TA100, Metabolic Activation: RAT LIVER S-9, PHENOBARBITAL AND BETA-NAPHTHOFLAVONE, Method: PREINCUBATION inactive; negative | Test System: AMES SALMONELLA TYPHIMURIUM, Strain/Indicator: TA100, Metabolic Activation: RAT, LIVER, S-9, AROCLOR 1254 (10%), Method: PREINCUBATION inactive; negative | Test System: AMES SALMONELLA TYPHIMURIUM, Strain/Indicator: TA100, Metabolic Activation: RAT, LIVER, S-9, AROCLOR 1254, Method: STANDARD PLATE inactive; negative | Test System: AMES SALMONELLA TYPHIMURIUM, Strain/Indicator: TA100, Metabolic Activation: RAT, LIVER, S-9, PCB, Method: PREINCUBATION inactive; negative | Test System: AMES SALMONELLA TYPHIMURIUM, Strain/Indicator: TA1535, Metabolic Activation: HAMSTER, LIVER, S-9, AROCLOR 1254 (10%), Method: PREINCUBATION inactive; negative | Test System: AMES SALMONELLA TYPHIMURIUM, Strain/Indicator: TA1535, Metabolic Activation: NONE, Method: PREINCUBATION inactive; negative | [3] inactive; negative | Test System: AMES SALMONELLA TYPHIMURIUM, Strain/Indicator: TA1535, Metabolic Activation: RAT LIVER S-9, PHENOBARBITAL AND BETA-NAPHTHOFLAVONE, Method: PREINCUBATION inactive; negative | Test System: AMES SALMONELLA TYPHIMURIUM, Strain/Indicator: TA1535, Metabolic Activation: RAT, LIVER, S-9, AROCLOR 1254 (10%), Method: PREINCUBATION inactive; negative | Test System: AMES SALMONELLA TYPHIMURIUM, Strain/Indicator: TA1535, Metabolic Activation: RAT, LIVER, S-9, AROCLOR 1254, Method: STANDARD PLATE inactive; negative | Test System: AMES SALMONELLA TYPHIMURIUM, Strain/Indicator: TA1537, Metabolic Activation: HAMSTER, LIVER, S-9, AROCLOR 1254 (10%), Method: PREINCUBATION inactive; negative | Test System: AMES SALMONELLA TYPHIMURIUM, Strain/Indicator: TA1537, Metabolic Activation: NONE, Method: PREINCUBATION inactive; negative | [4] inactive; negative | Test System: AMES SALMONELLA TYPHIMURIUM, Strain/Indicator: TA1537, Metabolic Activation: RAT LIVER S-9, PHENOBARBITAL AND BETA-NAPHTHOFLAVONE, Method: PREINCUBATION inactive; negative | Test System: AMES SALMONELLA TYPHIMURIUM, Strain/Indicator: TA1537, Metabolic Activation: RAT, LIVER, S-9, AROCLOR 1254 (10%), Method: PREINCUBATION inactive; negative | Test System: AMES SALMONELLA TYPHIMURIUM, Strain/Indicator: TA1537, Metabolic Activation: RAT, LIVER, S-9, AROCLOR 1254, Method: STANDARD PLATE inactive; negative | Test System: AMES SALMONELLA TYPHIMURIUM, Strain/Indicator: TA1538, Metabolic Activation: NONE, Method: STANDARD PLATE inactive; negative | Test System: AMES SALMONELLA TYPHIMURIUM, Strain/Indicator: TA1538, Metabolic Activation: RAT, LIVER, S-9, AROCLOR 1254, Method: STANDARD PLATE inactive; negative | Test System: CHINESE HAMSTER OVARY, Strain/Indicator: CHO (HGPRT)/6-THIOGUANINE, Metabolic Activation: NONE inactive; negative | Test System: CHINESE HAMSTER OVARY, Strain/Indicator: CHO (HGPRT)/6-THIOGUANINE, Metabolic Activation: RAT, LIVER, S-9, AROCLOR 1254 inactive; negative | Test System: E.COLI, Strain/Indicator: WP2UVRA/PKM101, Metabolic Activation: NONE, Method: PREINCUBATION inactive; negative | Test System: E.COLI, Strain/Indicator: WP2UVRA/PKM101, Metabolic Activation: RAT LIVER S-9, PHENOBARBITAL AND BETA-NAPHTHOFLAVONE, Method: PREINCUBATION inactive; negative | Test System: UDS RAT HEPATOCYTES, Strain/Indicator: THY INCORP, Metabolic Activation: NONE, Method: SCINTILLATION SPECTROMETRY inactive; negative

CC1(C)C(C(=O)OC(C#N)c2cccc(Oc3ccccc3)c2)C1(C)C (centres undefined)
inactive: End Point: In vitro chromasomal aberrations, Test System: Chinese hamster ovary (CHO-K1) cells, Metabolic Activation: None inactive; negative | End Point: In vitro chromasomal aberrations, Test System: Chinese hamster ovary (CHO-K1) cells, Metabolic Activation: Rat, liver, S-9, PCB inactive; negative | [1] inactive; negative | Test System: AMES SALMONELLA TYPHIMURIUM, Strain/Indicator: TA98, Metabolic Activation: S-9, Method: STANDARD PLATE inactive; negative | [2] inactive; negative | Test System: AMES SALMONELLA TYPHIMURIUM, Strain/Indicator: TA100, Metabolic Activation: S-9, Method: STANDARD PLATE inactive; negative | [3] inactive; negative | Test System: AMES SALMONELLA TYPHIMURIUM, Strain/Indicator: TA1535, Metabolic Activation: S-9, Method: STANDARD PLATE inactive; negative | [4] inactive; negative | Test System: AMES SALMONELLA TYPHIMURIUM, Strain/Indicator: TA1537, Metabolic Activation: S-9, Method: STANDARD PLATE inactive; negative | Test System: Ames Salmonella typhimurium, Strain/Indicator: TA98, Metabolic Activation: Rat, Liver, S-9, Kanechlor-400, Method: Preincubation inactive; negative | Test System: Ames Salmonella typhimurium, Strain/Indicator: TA100, Metabolic Activation: Rat, Liver, S-9, Kanechlor-400, Method: Preincubation inactive; negative | Test System: Ames Salmonella typhimurium, Strain/Indicator: TA1535, Metabolic Activation: Rat, Liver, S-9, Kanechlor-400, Method: Preincubation inactive; negative | Test System: Ames Salmonella typhimurium, Strain/Indicator: TA1537, Metabolic Activation: Rat, Liver, S-9, Kanechlor-400, Method: Preincubation inactive; negative | Test System: Ames Salmonella typhimurium, Strain/Indicator: TA1538, Metabolic Activation: Rat, Liver, S-9, Kanechlor-400, Method: Preincubation inactive; negative | Test System: E. coli, Strain/Indicator: WP2uvrA, Metabolic Activation: Rat, Liver, S-9, Kanechlor-400, Method: Preincubation inactive; negative
